A short description of series [1]: Antiproliferative activity against human SK-OV-3/Taxol cells assessed as inhibition of cell growth incubated for 72 hrs by MTT assay. Type of series: functional, cell-based. As to conditions: SK-OV-3, 72 h. In general terms: Formazan colour is commonly taken as a measure of viable cells.
In series [2] the test system is THP-1. The experiment in a line: Induction of apoptosis in human THP-1 cells assessed as late apoptotic cells at 2.5 uM incubated for 48 hrs by Annexin V-FITC/PI staining based flow cytometry (reference value: 0.74 %). Format: functional.
Series [3] deals with SK-OV-3. Description: Induction of apoptosis in human SK-OV-3 cells assessed as viable cells at 2.5 uM incubated for 48 hrs by Annexin V-FITC/PI staining based flow cytometry (reference value: 90.97 %). Format: functional. As to conditions: read-out: Activity. A general note: In flow cytometry, cells or beads pass a laser one at a time.
Series [4] has as its system SK-OV-3. Description: Induction of apoptosis in human SK-OV-3 cells assessed as change in mitochondrial membrane potential at 5 uM incubated for 48 hrs by JC-1 staining based flow cytometry (reference value: 5.34 %). Type of series: functional.
In series [5] the test system is KG-1. The experiment in a line: Upregulation of p21 expression in human KG-1 cells incubated for 48 hrs by Western blot analysis. Type of series: functional, cell-based. Conditions: dose 0.5-2.5 µM.
In series [6] the test system is KG-1. The experiment in a line: Upregulation of Bax expression in human KG-1 cells incubated for 48 hrs by Western blot analysis. Format: functional, cell-based. As to conditions: dose 0.5-2.5 µM. In general terms: A western blot detects proteins with antibodies after separation by electrophoresis.
The subject of series [7] is THP-1. Description: Downregulation of Bcl-XL expression in human THP-1 cells incubated for 48 hrs by Western blot analysis. Type of series: functional, cell-based. As to conditions: dose 0.5-2.5 µM.
Series [8] relates to SK-OV-3. The experiment in a line: Downregulation of XIAP expression in human SK-OV-3 cells incubated for 48 hrs by Western blot analysis. Type of series: functional, cell-based.
Series [9] concerns KG-1. The experiment in a line: Downregulation of YAP1 expression in human KG-1 cells incubated for 48 hrs by Western blot analysis. Format: functional, cell-based. Conditions: dose 0.5-2.5 µM.
The test system of series [10] is SK-OV-3. The experiment in a line: Downregulation of TAZ expression in human SK-OV-3 cells incubated for 48 hrs by Western blot analysis. Type of series: functional, cell-based. Conditions: dose 0.5-2.5 µM.
The subject of series [11] is SK-OV-3. The experiment in a line: Downregulation of c-Myc expression in human SK-OV-3 cells incubated for 48 hrs by Western blot analysis. Format: functional, cell-based. As to conditions: dose 0.5-2.5 µM.
The test system of series [12] is THP-1. The experiment in a line: Downregulation of c-Myc expression in human THP-1 cells incubated for 48 hrs by Western blot analysis. Type of series: functional, cell-based. As to conditions: dose 0.5-2.5 µM.
Series [13] addresses Signal transducer and activator of transcription 3 (Homo sapiens) (UniProt P40763). The experiment in a line: Inhibition of STAT3 phosphorylation in human SK-OV-3 cells at 0.5 to 2.5 uM incubated for 48 hrs by Western blot analysis. Format: cell-based. As to conditions: dose 0.5-2.5 µM.
The subject of series [14] is U-937. The experiment in a line: Induction of apoptosis in human U-937 cells assessed as viable cells at 0.5 uM incubated for 48 hrs by Annexin V-FITC/PI staining based flow cytometry (reference value: 93.30 %). Format: functional. Conditions: read-out: Activity.
In series [15] the test system is U-937. The experiment in a line: Induction of apoptosis in human U-937 cells assessed as early apoptotic cells at 0.5 uM incubated for 48 hrs by Annexin V-FITC/PI staining based flow cytometry (reference value: 2.72 %). Type of series: functional.
Series [16] deals with U-937. The experiment in a line: Induction of apoptosis in human U-937 cells assessed as late apoptotic cells at 0.5 uM incubated for 48 hrs by Annexin V-FITC/PI staining based flow cytometry (reference value: 1.96 %). Format: functional.
In series [17] the test system is U-937. The experiment in a line: Induction of apoptosis in human U-937 cells assessed as viable cells at 1 uM incubated for 48 hrs by Annexin V-FITC/PI staining based flow cytometry (reference value: 93.30 %). Format: functional. Conditions: read-out: Activity.
Series [18] concerns U-937. The experiment in a line: Induction of apoptosis in human U-937 cells assessed as late apoptotic cells at 1 uM incubated for 48 hrs by Annexin V-FITC/PI staining based flow cytometry (reference value: 1.96 %). Type of series: functional.
Series [19] relates to U-937. Description: Induction of apoptosis in human U-937 cells assessed as necrotic cells at 1 uM incubated for 48 hrs by Annexin V-FITC/PI staining based flow cytometry (reference value: 2.03 %). Format: functional.
In series [20] the test system is U-937. Description: Induction of apoptosis in human U-937 cells assessed as viable cells at 2.5 uM incubated for 48 hrs by Annexin V-FITC/PI staining based flow cytometry (reference value: 93.30 %). As to conditions: read-out: Activity. Type of series: functional.
In series [21] the test system is U-937. Description: Induction of apoptosis in human U-937 cells assessed as early apoptotic cells at 2.5 uM incubated for 48 hrs by Annexin V-FITC/PI staining based flow cytometry (reference value: 2.72 %). Format: functional.
For series [22], the system named is U-937. Description: Induction of apoptosis in human U-937 cells assessed as necrotic cells at 2.5 uM incubated for 48 hrs by Annexin V-FITC/PI staining based flow cytometry (reference value: 2.03 %). Format: functional.
For series [23], the system named is U-937. Description: Induction of apoptosis in human U-937 cells assessed as change in mitochondrial membrane potential at 1 uM incubated for 48 hrs by JC-1 staining based flow cytometry (reference value: 2.20 %). Type of series: functional.
Series [24] deals with U-937. Description: Induction of apoptosis in human U-937 cells assessed as change in mitochondrial membrane potential at 2.5 uM incubated for 48 hrs by JC-1 staining based flow cytometry (reference value: 2.20 %). Type of series: functional.
In series [25] the test system is U-937. Description: Upregulation of p21 expression in human U-937 cells incubated for 48 hrs by Western blot analysis. Type of series: functional, cell-based.
Series [26] relates to THP-1. The experiment in a line: Downregulation of TAZ expression in human THP-1 cells incubated for 48 hrs by Western blot analysis. Format: functional, cell-based. As to conditions: dose 0.5-2.5 µM.
Series [27] relates to U-937. The experiment in a line: Downregulation of TAZ expression in human U-937 cells incubated for 48 hrs by Western blot analysis. Conditions: dose 0.5-2.5 µM. Format: functional, cell-based.
Series [28] relates to THP-1. The experiment in a line: Downregulation of Bcl-2 expression in human THP-1 cells incubated for 48 hrs by Western blot analysis. Format: functional, cell-based. Conditions: dose 0.5-2.5 µM.
Series [29] deals with Signal transducer and activator of transcription 3 (Homo sapiens) (UniProt P40763). Description: Inhibition of STAT3 phosphorylation in human U-937 cells at 0.5 to 2.5 uM incubated for 48 hrs by Western blot analysis. Format: cell-based. As to conditions: dose 0.5-2.5 µM.
For series [30] the target is unchanged. Description: Inhibition of STAT3 phosphorylation in human SK-OV-3 cells at 1 to 5 uM incubated for 48 hrs by Western blot analysis. As to conditions: dose 1-5 µM. Format: cell-based.
Series [31] has as its system SK-OV-3. The experiment in a line: Antitumor activity against human SK-OV-3 cells xenografted in nude mouse assessed as tumor growth suppression at 30 to 60 mg/kg, ip qd treated for 14 days. Format: functional, organism-based. Conditions: dose 30-60 mg/kg, time 14.0 day.
The test system of series [32] is SK-OV-3. The experiment in a line: Antitumor activity against human SK-OV-3 cells xenografted in nude mouse assessed as reduction cell proliferation at 30 to 60 mg/kg, ip qd treated for 14 days by Ki67 staining based IHC analysis. Type of series: functional, organism-based. As to conditions: dose 30-60 mg/kg, time 14.0 day.
A short description of series [33]: Toxicity in nude mouse xenografted with human SK-OV-3 cells assessed as body weight change at 30 to 60 mg/kg, ip qd treated for 14 days. Format: organism-based. Conditions: in vivo, 336 h, dose 30-60 mg/kg, time 14 day.
The nature of series [34]: Toxicity in nude mouse xenografted with human SK-OV-3 cells assessed as histopathological change in heart at 30 to 60 mg/kg, ip qd treated for 14 days by H and E staining based analysis. Format: organism-based. As to conditions: in vivo, 336 h, dose 30-60 mg/kg, time 14 day.
Series [35] is described as follows: Toxicity in nude mouse xenografted with human SK-OV-3 cells assessed as histopathological change in liver at 30 to 60 mg/kg, ip qd treated for 14 days by H and E staining based analysis. Type of series: organism-based. Conditions: in vivo, 336 h, dose 30-60 mg/kg, time 14 day.
Series [36] is described as follows: Toxicity in nude mouse xenografted with human SK-OV-3 cells assessed as histopathological change in spleen at 30 to 60 mg/kg, ip qd treated for 14 days by H and E staining based analysis. Format: organism-based. As to conditions: in vivo, 336 h, dose 30-60 mg/kg, time 14 day.
The nature of series [37]: Toxicity in nude mouse xenografted with human SK-OV-3 cells assessed as histopathological change in kidney at 30 to 60 mg/kg, ip qd treated for 14 days by H and E staining based analysis. Conditions: in vivo, 336 h, dose 30-60 mg/kg, time 14 day. Type of series: organism-based.
Series [38] can be described thus: Toxicity in nude mouse xenografted with human SK-OV-3 cells assessed as histopathological change in lungs at 30 to 60 mg/kg, ip qd treated for 14 days by H and E staining based analysis. Conditions: in vivo, 336 h, dose 30-60 mg/kg, time 14 day. Format: organism-based.

Molecules are shown by their SMILES. Calls of active or inactive are those of the source. The rule behind the calls is not given here.

This note sets out measurements from ChEMBL document CHEMBL6114992, “Design, synthesis, biological evaluation, and mechanism of action of new pyrazines as anticancer agents in vitro and in vivo” (Bioorg Med Chem, 2025).

Chain of Signal transducer and activator of transcription 3 (Homo sapiens) (P40763 whole entry): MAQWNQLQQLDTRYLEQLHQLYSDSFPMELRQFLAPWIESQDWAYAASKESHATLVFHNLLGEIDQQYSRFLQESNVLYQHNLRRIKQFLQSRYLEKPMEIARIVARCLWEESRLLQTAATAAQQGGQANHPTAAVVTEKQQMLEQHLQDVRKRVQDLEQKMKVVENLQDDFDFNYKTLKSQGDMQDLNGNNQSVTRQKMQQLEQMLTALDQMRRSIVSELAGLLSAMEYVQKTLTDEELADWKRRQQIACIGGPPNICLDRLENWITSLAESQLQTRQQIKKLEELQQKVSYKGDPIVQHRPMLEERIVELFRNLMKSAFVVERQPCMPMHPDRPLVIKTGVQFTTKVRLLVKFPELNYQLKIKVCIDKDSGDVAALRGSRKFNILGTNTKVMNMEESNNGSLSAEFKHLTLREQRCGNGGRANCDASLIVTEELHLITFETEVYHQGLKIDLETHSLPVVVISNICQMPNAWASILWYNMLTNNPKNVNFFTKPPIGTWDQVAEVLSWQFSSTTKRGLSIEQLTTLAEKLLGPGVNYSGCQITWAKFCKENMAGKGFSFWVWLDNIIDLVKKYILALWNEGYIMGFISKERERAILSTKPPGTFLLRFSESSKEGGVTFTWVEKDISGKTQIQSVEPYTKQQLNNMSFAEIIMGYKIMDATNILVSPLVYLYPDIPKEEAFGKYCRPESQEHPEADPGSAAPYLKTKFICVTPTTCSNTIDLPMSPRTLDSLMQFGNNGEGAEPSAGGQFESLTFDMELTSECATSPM

The IC50 is the concentration at which inhibition is half-maximal. `CCc1nccnc1C(=O)/C=C/c1ccccn1`: in [1], the IC50 was 1.24 µM. Besides, the Activity is 3.26% in series [2]; 31.28% in series [4]; “Dose-dependent-effect” in [5]; “Dose-dependent-effect” in series [6]; “Dose-dependent-effect” in series [7]; “Dose-dependent-effect” in [8]. The Activity result in [9], in series [10], in series [11] and in series [12] was “Dose-dependent-effect” each time. The viability at 2.5 µM in [3] was 67%. Moreover, in series [13], the inhibition entry was “Active”.
Consider `Cc1nccnc1C(=O)/C=C/c1cccc(C#N)c1`, for which the IC50 in series [1] turned out to be 1.42 µM. In addition, the Activity in series [2] was found to be 4.82%; in series [15], 9.68%; in series [16], 6.79%; in series [18], 9.69%; in [19], 3.14%; in [21], 11.68%. In addition, the Activity was 3.09% in [22]; 3.68% in series [23]; 4.53% in series [24]; 53.8% in series [4]; “Dose-dependent-effect” in series [25]; “Dose-dependent-effect” in [8]. Further, the Activity result is “Dose-dependent-effect” in series [26]; “Dose-dependent-effect” in series [27]; “Dose-dependent-effect” in series [28]; “Non-toxic” in series [33]; “Non-toxic” in series [34]; “Non-toxic” in [35]. Further, the Activity entry in series [36], in series [37] and in series [38] was “Non-toxic” each time. For the same compound, the viability at 0.5 µM in [14] was found to be 80.9%. Also, in series [17], the viability at 1 µM was found to be 76.2%. Further, the viability at 2.5 µM in series [20] is 75.5%; in [3], 63.3%. Further, the inhibition result in [29] and in series [30] was “Active” in each case. Besides, the outcome in series [31] and in series [32] was Active.
